Assay results taken from patent publication US12357723B2, “Antimicrobial silver iodate” (Innovotech, Inc., priority 2012, dated 2025).
Where two headings read alike, the source gives them in different places.

How the values were obtained:
[1] = Ag5IO6 stability in solvents (isothermal TAM III heat flow, XRD); assay type: physicochemical
Description: The purpose of this study was to determine whether or not Ag5IO6 interacts with methanol, tetrahydrofuran, acetone, and acetonitrile. […] of Ag5IO6 was placed in a vial, 2 mL of the solvent was added, and the vial was placed in a TAM III for an isothermal run at room temperature for >24 h with solvent only as the reference. The heat flow was measured. After the run was complete, the solvents were allowed to flash off and the solids collected were submitted to XRD. Samples exposed following essentially the same method for only 18 h were also submitted for XRD

[2] = Basic compatibility of Ag5IO6 with gels (visual, pH, UV-Vis, XRD); assay type: physicochemical
Source text: The purpose of this study was to determine whether Ag5IO6 could be incorporated into various gels without reacting with the gels. Ag5IO6 powder was combined with various commercially available hydrogels and then visually examined for stability, along with UV-Vis analysis and x-ray diffraction.
Gels selected: Guardian Laboratories AquaThik™ (Xanthan gum, PEG-180; 3% in water); Lubrajel® RC (Water, glycerin, propylene glycol, polyacrylic acid, sodium polyacrylate, 0.18% methylparaben, 0.02% propylparaben), and Lubrajel® PF (Glycerin, glyceryl acrylate/acrylic acid copolymer); SteriLub™ (unknown composition); BASF Pluronic® F127+Carbowax 600 (Polyoxyethylene-polyoxypropylene block copolymer; 18% Pluronic, 15% Carbowax 600); ConvaTec DuoDerm® Hydroactive® Sterile Gel (pectin, sodium carboxymethylcellulose); MoInlycke Normlgel® (0.9% NaCl, H2O, xanthan gum); Smith & Nephew IntraSite Gel (Water>60%, propylene glycol 10-30%, absorbent polymer<10%-crilanomer, a Graft-T starch copolymer) and SoloSite Gel (Water>60%, glycerol 10-30%, absorbent polymer<10%, allantoin<1%, antiseptic/preservative<1%); carboxymethylcellulose gel (4% in water); Cremophor; and Gelrite (0.4% in water).
For each gel, the samples were mixed in a small glass container with fine Ag5IO6 powder to generate 500 ppm Ag5IO6 in the gels. Each of the above formulations were examined for visual signs of instability, such as dramatic viscosity changes, color changes, release of gas, deposition of precipitate that appears different from the original Ag5IO6, and temperature change during stirring (heat release).
UV-Vis Analysis: Samples were diluted to 1/10th their original concentration. For UV-Vis blanks, control gels (with no Ag5IO6) were prepared as described for each gel, and diluted to 1/10th as well. UV-Vis measurements were performed between 190-500 nm.
pHs of the gel formulations were measured with and without the Ag5IO6 added using pH indicator strips.

[3] = Ag5IO6 solubility in water and saline, OECD Method (105) flask; assay type: physicochemical
Source text: The purpose of this study was to develop a basic understanding of the solubility (and stability) of Ag5IO6 in pure water and 0.9% (physiological saline), following OECD Method (105)—flask.

[4] = for Grain size: 90° C.

In the case of `[Ag+].[Ag+].[Ag+].[Ag+].[Ag+].[O-][I+]([O-])([O-])([O-])([O-])[O-]` [Ag5IO6, pentasilver hexaoxoiodate], the “Rank of solubility in organic solvents” value [1] is reported as “methanol>>THF>acetone>acetonitrile”, the “Onset of significant reaction” value ([1]; acetonitrile (slower onset), room temperature) is reported as “about 56 h” and the “Time blended without substantial reaction” value ([1]; all solvents (methanol, tetrahydrofuran, acetone, acetonitrile), room temperature) is reported as under 18 h. The “Onset of significant reaction” value ([1]; methanol, room temperature) was “about 33 h”, the “Onset of significant reaction” value ([1]; solvent printed as THE, room temperature) was “about 56 h” and the “Ag5IO6 purity by XRD after mixing into gel” value ([2]; 500 ppm Ag5IO6 in AquaThik gel) was 100%. The “XRD: reaction of Ag5IO6 with gel” value ([2]; 500 ppm Ag5IO6 in Cremophor gel) was “no Ag5IO6 detected by the XRD analysis”, the “XRD: reaction of Ag5IO6 with gel” value ([2]; 500 ppm Ag5IO6 in DuoDerm hydrogel) was “remained pure” and the “XRD: reaction of Ag5IO6 with gel” value ([2]; 500 ppm Ag5IO6 in Gelrite (0.4% in water)) was “did not react”. The “XRD: reaction of Ag5IO6 with gel” value ([2]; 500 ppm Ag5IO6 in IntraSite gel) was “no reaction products”, the “XRD: reaction of Ag5IO6 with gel” value ([2]; 500 ppm Ag5IO6 in Lubrajel PF) was “had not reacted” and the “XRD: reaction of Ag5IO6 with gel” value ([2]; 500 ppm Ag5IO6 in Lubrajel RC) was “did not react”. For the same compound, the “XRD: reaction of Ag5IO6 with gel” value ([2]; 500 ppm Ag5IO6 in Normlgel (0.9% NaCl), AgCl found) was “incompatible under these conditions with this gel for long term storage”, the “Visual signs of instability after addition of Ag5IO6” value ([2]; 500 ppm Ag5IO6 in Pluronic F127 plus Carbowax 600, no XRD) was “undesirable physical changes in the gel” and the “XRD: reaction of Ag5IO6 with gel” value ([2]; 500 ppm Ag5IO6 in SoloSite gel) was “no reaction products”. For the same compound, the “Ag5IO6 purity by XRD after mixing into gel” value ([2]; 500 ppm Ag5IO6 in SteriLub gel) was 100%, the “XRD: reaction of Ag5IO6 with gel” value ([2]; 500 ppm Ag5IO6 in carboxymethylcellulose gel (4% in water)) was “not reactive” and the Solubility ([3]; ddH2O) was 0.02441 ± 0.00087 mg/mL. The pH of solution ([3]; in ddH2O) was 8, the “Solid material converted to Ag metal (XRD)” value ([3]; in ddH2O, end of experiment) was 0.1% and the “Solid material remaining as Ag5IO6 (XRD)” value ([3]; in ddH2O, end of experiment) was “approximately 99.9%”. The pH of solution ([3]; in saline) was 10, the “Solid material converted to AgCl (XRD)” value ([3]; in saline, end of experiment) was “approximately 25%” and the Solubility ([3]; saline (0.9%)) was 0.00061 ± 5e-05 mg/mL. For the same compound, the Grain size ([4]; Day 0) was 14 Å, the Grain size ([4]; Day 14) was 62 Å and the Grain size ([4]; Day 28) was 94 Å. For the same compound, the “Composition remaining Ag5IO6” value ([4]; 672 h) was 100% and the Shelf life ([4]; room temperature, extrapolated from accelerated storage) was over 2 years.
